Marks after values point to notes of the source that are not given here.
Test: Kinetics of removal of LPS with different agitation techniques in presence of stearate salts
Assay type: biochemical
Design: Endotoxin Detected: unit not given here
Conditions: for Endotoxin Detected (EU) / Endotoxin Detected: 5mL SRW, baseline 1,502; for Percent (%) Removed: vs SRW Baseline; for Endotoxin Detected: Table 18
Description: 5mL of SRW was added to each of the tubes. Each solution was tested for endotoxin removal after agitation based on with sonication, vortexing, or test tube rolling. Sonication samples were sonicated at each indicated time interval for 30 seconds at a magnitude of 30. Vortex samples were vortexed at each indicated time interval for 30 seconds at 2500 RPM. Rolling samples were constantly rolling at 10 rpm. The samples were tested on the MCS for endotoxin at 1 minute, 20 minutes, 40 minutes, 60 minutes, and 80 minutes.

| Molecule | Percent (%) Removed (Rolling, 1 minute) | Percent (%) Removed (Rolling, 20 minutes) | Percent (%) Removed (Rolling, 40 minutes) | Percent (%) Removed (Rolling, 60 minutes) | Percent (%) Removed (Rolling, 80 minutes) | Percent (%) Removed (Sonication, 1 minute) | Percent (%) Removed (Sonication, 20 minutes) | Percent (%) Removed (Sonication, 40 minutes) | Percent (%) Removed (Sonication, 60 minutes) | Percent (%) Removed (Sonication, 80 minutes) | Percent (%) Removed (Vortexing, 1 minute) | Percent (%) Removed (Vortexing, 20 minutes) | Percent (%) Removed (Vortexing, 40 minutes) | Percent (%) Removed (Vortexing, 60 minutes) | Percent (%) Removed (Vortexing, 80 minutes) | other results |
| --- | --- | --- | --- | --- | --- | --- | --- | --- | --- | --- | --- | --- | --- | --- | --- | --- |
| CCCCCCCCCCCCCCCCCC(=O)O [Magnesium Stearate] | 29.4% | 25.4% | 29.4% | 25.4% | 20.8% | 50.5% | 52.3% | 45.1% | 41.1% | 53.2% | 41.1% | 33.4% | 40% | 36.2% | 29.4% | Endotoxin Detected (EU) (Rolling, 1 minute): 1,060 EU; Endotoxin Detected (EU) (Rolling, 20 minutes): 1,120 EU; Endotoxin Detected (EU) (Rolling, 40 minutes): 1,060 EU; Endotoxin Detected (EU) (Rolling, 60 minutes): 1,120 EU; Endotoxin Detected (EU) (Rolling, 80 minutes): 1,190 EU; Endotoxin Detected (EU) (Sonication, 1 minute): 743 EU; Endotoxin Detected (EU) (Sonication, 20 minutes): 716 EU; Endotoxin Detected (EU) (Sonication, 40 minutes): 824 EU; Endotoxin Detected (EU) (Sonication, 60 minutes): 884 EU; Endotoxin Detected (EU) (Sonication, 80 minutes): 703 EU; Endotoxin Detected (EU) (Vortexing, 1 minute): 884 EU; Endotoxin Detected (EU) (Vortexing, 20 minutes): 1,000 EU; Endotoxin Detected (EU) (Vortexing, 40 minutes): 901 EU; Endotoxin Detected (EU) (Vortexing, 60 minutes): 958 EU; Endotoxin Detected (EU) (Vortexing, 80 minutes): 1,060 EU |
| Aluminum Monostearate | 85.3% | 16.1% | 17.4% | 55.3% | 18.8% | 58.3% | 73% | 75% | 71.1% | 80.6% | 45.6% | 43.5% | 47.7% | 46.7% | 49.6% | Endotoxin Detected (Rolling, 1 minute): 221*; Endotoxin Detected (Rolling, 20 minutes): 1,260; Endotoxin Detected (Rolling, 40 minutes): 1,240; Endotoxin Detected (Rolling, 60 minutes): 672; Endotoxin Detected (Rolling, 80 minutes): 1,220; Endotoxin Detected (Sonication, 1 minute): 626; Endotoxin Detected (Sonication, 20 minutes): 406; Endotoxin Detected (Sonication, 40 minutes): 375; Endotoxin Detected (Sonication, 60 minutes): 434; Endotoxin Detected (Sonication, 80 minutes): 291; Endotoxin Detected (Vortexing, 1 minute): 817; Endotoxin Detected (Vortexing, 20 minutes): 849; Endotoxin Detected (Vortexing, 40 minutes): 786; Endotoxin Detected (Vortexing, 60 minutes): 801; Endotoxin Detected (Vortexing, 80 minutes): 757 |

Source: patent publication EP3355943B1, “METHODS AND SYSTEMS FOR TREATING MEDICAL DEVICES AND FLUIDS” (Ethicon, Inc., priority 2015, dated 2017)
